Assay results as given in patent EP4707284A1, “HETEROCYCLIC COMPOUND AND USE THEREOF” (Otsuka Pharmaceutical Co., Ltd., priority 2023, dated 2024).

Type: physicochemical
Conditions: Tris-hydrochloric acid buffer (pH 7.5) 50 mmol/L, magnesium chloride 5 mmol/L, evaluation compound 1 µmol/L, 37°C, 60 minutes, average of duplicate
Procedure: The conversion from the evaluation compounds to brexpiprazole in a buffer (i.e., the stability of the evaluation compounds) was evaluated.
The Example 1 compound was dissolved in acetonitrile/water (1:1, v/v) to 10 mmol/L and further diluted with acetonitrile/water (1:1, v/v) to 100 µmol/L for use.
The other Example compounds and the Reference Example 5 compound to Reference Example 7 compound were each dissolved in DMSO to 10 mmol/L and further diluted with acetonitrile to 100 µmol/L for use, except for the following compounds.
The compounds of Examples 52, 95, 96, 117, and 130 (EX 52, EX 95, EX 96, EX 117, and EX 130) were dissolved in acetonitrile/water (8:2, v/v) to 10 mmol/L and further diluted with acetonitrile to 100 µmol/L for use.
The compound of Example 97 (EX 97) was dissolved in acetonitrile/water (8:2, v/v) to 10 mmol/L and further diluted with acetonitrile/water (8:2, v/v) to 100 µmol/L for use.
The compounds of Examples 15 and 116 (EX 15 and EX 116) were dissolved in DMSO to 1 mmol/L and further diluted with acetonitrile to 100 µmol/L for use.
These evaluation compound solutions were prepared at the time of use.
The reaction was conducted by preparing each reaction solution such that the final concentration of each component was as follows. The test was conducted in duplicate.
For the compounds of Examples 1 to 8, 10 to 19, 26 to 27, 37, 50, 87 to 89, 91, 116, 121, 123, 150, and 151 (EX 1 to EX 8, EX 10 to EX 19, EX 26 to EX 27, EX 37, EX 50, EX 87 to EX 89, EX 91, EX 116, EX 121, EX 123, EX 150, and EX 151), and the compounds of Reference Examples 5 to 7 (REX 5 to REX 7), the reaction solution without the evaluation compound (198 µl) was pre-incubated at 37°C for 3 minutes, and then each of the evaluation compound solutions (2 µl) was added and stirred; thereafter, the reaction was started at 37°C. At 0 minutes or 60 minutes after the start of the reaction, the reaction was stopped by adding and stirring a reaction stop solution (1000 µl) composed of acetonitrile/isopropanol (4:1, v/v) containing internal standard substances. However, the 0-minute reaction sample (198 µl) was prepared by adding the evaluation compound (2 µl) after adding the reaction stop solution (1000 µl). The samples after stopping the reaction were used as the measurement samples. Calibration curve samples with the same composition were prepared (final concentrations of the evaluation compounds and brexpiprazole: 0.01, 0.1, and 1 µmol/L, with the proviso that for the evaluation compounds only, the 0-minute reaction samples were also used as calibration curve samples for 1 µmol/L).
For the compounds of Examples 24 to 25, 28 to 29, 32 to 36, 40 to 49, 51 to 60, 62 to 64, 66 to 77, 80 to 86, 90, 92 to 111, 113, 115, 117 to 120, 122, 124 to 130, 132 to 147, and 152 to 160 (EX 24 to EX 25, EX 28 to EX 29, EX 32 to EX 36, EX 40 to EX 49, EX 51 to EX 60, EX 62 to EX 64, EX 66 to EX 77, EX 80 to EX 86, EX 90, EX 92 to EX 111, EX 113, EX 115, EX 117 to EX 120, EX 122, EX 124 to EX 130, EX 132 to EX 147, and EX 152 to EX 160), the reaction solution without the evaluation compound (148.5 µl) was pre-incubated at 37°C for 3 minutes, and then each of the evaluation compound solutions (1.5 µl) was added and stirred; thereafter, the reaction was started at 37°C. At 0 minutes or 60 minutes after the start of the reaction, the reaction was stopped by adding and stirring a reaction stop solution (600 µl) composed of acetonitrile/isopropanol (4:1, v/v) containing internal standard substances. However, the 0-minute reaction sample (148.5 µl) was prepared by adding the evaluation compound (1.5 µl) after adding the reaction stop solution (600 µl). The samples after stopping the reaction were used as the measurement samples. […]

Row | Concentration of brexpiprazole formed [nM] | Concentration of evaluation compound decreased [nM] | Structure (SMILES)
1 | 0 | 10 | CCOC(=O)CC(C)(C)CC(=O)OCOP(=O)([O-])OC[N+]1(CCCCOc2ccc3ccc(=O)[nH]c3c2)CCN(c2cccc3sccc23)CC1 [EX 32]
2 | 0 | 0 | COCCOC(=O)OCOP(=O)([O-])OC[N+]1(CCCCOc2ccc3ccc(=O)[nH]c3c2)CCN(c2cccc3sccc23)CC1 [EX 33]
3 | 0 | 90 | CC1(C)OCC(C(=O)OCOP(=O)([O-])OC[N+]2(CCCCOc3ccc4ccc(=O)[nH]c4c3)CCN(c3cccc4sccc34)CC2)CO1 [EX 67]
4 | 0 | 70 | CCOC(=O)C(CC)OP(=O)([O-])OC[N+]1(CCCCOc2ccc3ccc(=O)[nH]c3c2)CCN(c2cccc3sccc23)CC1 (centres unmarked) [EX 110]
5 | 0 | 50 | O=c1ccc2ccc(OCCCC[N+]3(COP(=O)([O-])OCC(F)F)CCN(c4cccc5sccc45)CC3)cc2[nH]1 [EX 115]
6 | 0 | 90 | CCOC(=O)OCOP(=O)([O-])OC[N+]1(CCCCOc2ccc3ccc(=O)[nH]c3c2)CCN(c2cccc3sccc23)CC1 [EX 129]
7 | 0 | 50 | CCC(=O)OCOP(=O)([O-])OC[N+]1(CCCCOc2ccc3ccc(=O)[nH]c3c2)CCN(c2cccc3sccc23)CC1 [EX 120]
8 | 0 | -10 | CC(C)(C)C(=O)OCOP(=O)([O-])OC[N+]1(CCCCOc2ccc3ccc(=O)[nH]c3c2)CCN(c2cccc3sccc23)CC1 [EX 25]

The next lines start with the compound.

Row | Structure (SMILES) | Concentration of brexpiprazole formed [nM] | Concentration of evaluation compound decreased [nM]
9 | CCOCCCOP(=O)([O-])OC[N+]1(CCCCOc2ccc3ccc(=O)[nH]c3c2)CCN(c2cccc3sccc23)CC1 [EX 97] | 0 | 90
10 | O=c1ccc2ccc(OCCCC[N+]3(COP(=O)([O-])OCCCCCO)CCN(c4cccc5sccc45)CC3)cc2[nH]1 [EX 92] | 0 | 110
11 | CCOC(=O)CCOC(=O)OCOP(=O)([O-])OC[N+]1(CCCCOc2ccc3ccc(=O)[nH]c3c2)CCN(c2cccc3sccc23)CC1 [EX 143] | 0 | 50
12 | O=c1ccc2ccc(OCCCC[N+]3(COP(=O)([O-])OCC#CCCl)CCN(c4cccc5sccc45)CC3)cc2[nH]1 [EX 63] | 0 | 20
13 | COCCOCOCCCCOP(=O)([O-])OC[N+]1(CCCCOc2ccc3ccc(=O)[nH]c3c2)CCN(c2cccc3sccc23)CC1 [EX 53] | 0 | 60
14 | O=c1ccc2ccc(OCCCC[N+]3(COP(=O)([O-])OCCCOc4ccccc4)CCN(c4cccc5sccc45)CC3)cc2[nH]1 [EX 84] | 0 | 10
15 | Cc1ncccc1C(=O)OCOP(=O)([O-])OC[N+]1(CCCCOc2ccc3ccc(=O)[nH]c3c2)CCN(c2cccc3sccc23)CC1 [EX 81] | 0 | -30
16 | C[C@@H]1CN(CCOP(=O)([O-])OC[N+]2(CCCCOc3ccc4ccc(=O)[nH]c4c3)CCN(c3cccc4sccc34)CC2)C[C@H](C)O1 [EX 116] | 0 | 90
